From the NIST ThermoML archive (doi:10.1016/j.jct.2005.02.008)

How the values were obtained:
[1] = Crystal; for mass density: 298.15 K, 101.33 kPa, Pycnometric method; for Normal melting temperature: DTA; for vapor or sublimation pressure: Calculated from knudsen effusion weight loss
[2] = molar heat capacity at constant pressure; conditions: 101.33 kPa, Crystal

c1ccc(-c2nc3ccccc3[nH]2)cc1 [2-phenylbenzimidazole]
[1]
Conditions	Normal melting temperature [°C]	mass density [kg/m3]
–	191.0	1060

[2]
Conditions	molar heat capacity at constant pressure [J/K/mol]
268.15 K	185.23
270.15 K	186.33
273.15 K	188.41
275.15 K	189.51
280.15 K	193.33
285.15 K	197.27
290.15 K	201.29
295.15 K	205.63
298.15 K	208.09
300.15 K	209.51
305.15 K	215.89
310.15 K	220.71
315.15 K	224.47
320.15 K	228.09
325.15 K	231.72
330.15 K	235.41
335.15 K	238.58
340.15 K	242.27
345.15 K	245.77
350.15 K	249.26
355.15 K	252.83
360.15 K	256.06
365.15 K	259.95
370.15 K	263.64
375.15 K	266.16
380.15 K	269.14
385.15 K	272.38
390.15 K	276.33
395.15 K	280.47
400.15 K	285
405.15 K	288.95
410.15 K	292.32
415.15 K	295.82
420.15 K	300.09
425.15 K	304.1
430.15 K	308.05
435.15 K	312.13
440.15 K	316.02
445.15 K	319.51
450.15 K	322.1

c1ccc(Cc2nc3ccccc3[nH]2)cc1 [bendazol]
[1]
Conditions	Normal melting temperature [°C]	mass density [kg/m3]
–	297.4	1140

Conditions	molar heat capacity at constant pressure [J/K/mol]	vapor or sublimation pressure [kPa]
[1], 393.54 K	–	0.000125
[1], 396.81 K	–	0.000178
[1], 400.16 K	–	0.000248
[1], 402.04 K	–	0.000299
[1], 405.47 K	–	0.000419
[1], 409 K	–	0.000596
[1], 412.48 K	–	0.000829
[2], 270.15 K	215.86	–
[2], 273.15 K	218.67	–
[2], 275.15 K	220.51	–
[2], 280.15 K	223.25	–
[2], 285.15 K	227.59	–
[2], 290.15 K	228.63	–
[2], 295.15 K	228.79	–
[2], 298.15 K	228.92	–
[2], 300.15 K	229.04	–
[2], 305.15 K	231.75	–
[2], 310.15 K	233.79	–
[2], 315.15 K	237.21	–
[2], 320.15 K	240.29	–
[2], 325.15 K	244.91	–
[2], 330.15 K	248.5	–
[2], 335.15 K	252.54	–
[2], 340.15 K	255.29	–
[2], 345.15 K	260.53	–
[2], 350.15 K	261.16	–
[2], 355.15 K	264.99	–
[2], 360.15 K	269.16	–
[2], 365.15 K	272.11	–
[2], 370.15 K	283.19	–
[2], 375.15 K	285.9	–
[2], 380.15 K	289.9	–
[2], 385.15 K	293.81	–
[2], 390.15 K	298.39	–
[2], 395.15 K	303.73	–
[2], 400.15 K	307.64	–
[2], 405.15 K	312.35	–
[2], 410.15 K	314.26	–
[2], 415.15 K	322.84	–
[2], 420.15 K	329.18	–
[2], 425.15 K	333.59	–
[2], 430.15 K	342.59	–
[2], 435.15 K	349.42	–
[2], 440.15 K	359.96	–
